Measurements reported in ChEMBL document CHEMBL4808242, “Discovery of GNE-502 as an orally bioavailable and potent degrader for estrogen receptor positive breast cancer” (Bioorg Med Chem Lett, 2021).
pIC50: −log10 of the molar value. In brackets after ≈: the same amount, converted by molar mass. Activity calls are given as the source filed them. The rule behind the calls is not given here.

Columns and labels:
[1] = Kinetic solubility of compound at pH 7.4; type: physicochemical; settings: buffer, read-out: Kinetic_solubility
[2] = Distribution coefficient, logD of the compound at pH 7.4; settings: octanol/water
Estrogen receptor [3] = target: T1, Estrogen receptor (Homo sapiens, UniProt P03372); assay: Induction of ERalpha degradation in human MCF7 cells by immunofluorescence assay; type: cell-based
T1 sequence (P03372 whole entry): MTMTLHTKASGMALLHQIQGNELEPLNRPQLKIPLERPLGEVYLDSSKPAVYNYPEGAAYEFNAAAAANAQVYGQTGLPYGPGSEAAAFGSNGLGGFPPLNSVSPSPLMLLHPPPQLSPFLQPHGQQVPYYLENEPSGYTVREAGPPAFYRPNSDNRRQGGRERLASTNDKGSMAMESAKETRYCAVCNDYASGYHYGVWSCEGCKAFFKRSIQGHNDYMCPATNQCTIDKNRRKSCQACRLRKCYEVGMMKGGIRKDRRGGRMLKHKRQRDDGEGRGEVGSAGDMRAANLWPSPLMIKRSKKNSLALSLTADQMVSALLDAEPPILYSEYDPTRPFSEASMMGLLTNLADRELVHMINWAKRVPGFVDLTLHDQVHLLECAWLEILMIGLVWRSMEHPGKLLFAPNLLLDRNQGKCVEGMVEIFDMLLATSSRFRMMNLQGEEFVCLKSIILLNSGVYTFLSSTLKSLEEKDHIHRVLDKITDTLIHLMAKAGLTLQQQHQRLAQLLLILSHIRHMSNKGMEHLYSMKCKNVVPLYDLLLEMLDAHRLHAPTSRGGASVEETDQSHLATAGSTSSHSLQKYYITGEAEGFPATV

[4] = target: T2, Estrogen receptor (Homo sapiens) (UniProt P03372); assay: Induction of ERalpha degradation in human MCF7 cells assessed as maximum degradation by immunofluorescence assay relative to control; type: cell-based
T2 sequence (whole entry): T1 sequence (P03372 whole entry)

[5] = AUC in mouse at 100 mg/kg, po; type: ADME, organism-based; set-up: dose 100 mg/kg; settings: in vivo
Estrogen receptor [6] = target: T1, Estrogen receptor; assay: Displacement of fluorescein PGC1alpha from recombinant ERalpha (unknown origin)
[7] = Toxicity in mouse xenografted with human MCF7 cells assessed as body weight loss at 1 to 100 mg/kg, po administered for 4 weeks; type: organism-based; settings: in vivo, 672 h, dose 1-100 mg/kg
[8] = test system: Estrogen receptor (Homo sapiens), P03372 [Y537S]; assay: Induction of ERalpha Y537S mutant degradation expressed in human MCF7 cells assessed as maximum degradation by immunofluorescence assay relative to control; type: cell-based
Sequence of Estrogen receptor (Homo sapiens), P03372 [Y537S] (P03372 whole entry Y537S): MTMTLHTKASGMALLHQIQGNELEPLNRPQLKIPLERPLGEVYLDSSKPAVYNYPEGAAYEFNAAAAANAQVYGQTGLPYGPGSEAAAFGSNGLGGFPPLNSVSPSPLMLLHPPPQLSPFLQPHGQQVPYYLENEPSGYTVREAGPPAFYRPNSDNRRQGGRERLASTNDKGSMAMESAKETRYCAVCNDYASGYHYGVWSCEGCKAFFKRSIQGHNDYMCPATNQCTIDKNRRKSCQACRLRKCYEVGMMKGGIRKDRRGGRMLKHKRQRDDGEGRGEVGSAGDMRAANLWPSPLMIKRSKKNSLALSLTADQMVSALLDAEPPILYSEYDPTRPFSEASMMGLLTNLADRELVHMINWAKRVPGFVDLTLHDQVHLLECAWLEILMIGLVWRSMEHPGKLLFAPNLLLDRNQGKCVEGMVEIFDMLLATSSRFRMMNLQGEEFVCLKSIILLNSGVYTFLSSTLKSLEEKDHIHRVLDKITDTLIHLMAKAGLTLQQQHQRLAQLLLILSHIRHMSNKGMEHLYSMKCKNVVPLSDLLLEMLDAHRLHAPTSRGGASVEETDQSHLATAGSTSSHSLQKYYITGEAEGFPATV

[9] = Clearance in rat at 1 mg/kg, iv; type: ADME, organism-based; settings: in vivo
MCF7 [10] = assay: Antitumor activity against human MCF7 cells xenografted in po dosed mouse assessed as tumor growth inhibition measured after 4 weeks; type: functional, organism-based; settings: dose 10-100 mg/kg
MCF7 [11] = assay: Antiproliferation activity against human MCF7 cells assessed as reduction in cell viability measured by CellTiter-Glo luminescent assay; type: functional, cell-based
[12] = Volume of distribution at steady state in rat; type: ADME; settings: in vivo, read-out: Vdss
[13] = Oral bioavailability in rat; type: ADME, organism-based; settings: in vivo
[14] = AUC in mouse at 10 mg/kg, po; type: ADME, organism-based; set-up: dose 10 mg/kg; settings: in vivo
[15] = Apparent permeability across basolateral to apical side in MDCK cells; type: ADME, cell-based, Canis lupus familiaris; settings: dog
[16] = Half life in rat; type: ADME; settings: in vivo
Estrogen receptor [17] = target: Estrogen receptor (Homo sapiens, UniProt P03372, Y537S); assay: Induction of ERalpha Y537S mutant degradation expressed in human MCF7 cells by immunofluorescence assay; type: cell-based
Sequence of Estrogen receptor (Homo sapiens, UniProt P03372, Y537S) (P03372 whole entry Y537S): as above

MCF7 [18] = assay: Antitumor activity against human MCF7 cells xenografted in mouse assessed as tumor growth inhibition at 100 mg/kg, po measured after 4 weeks; type: functional, organism-based
in vitro = settings: dog, MDCK
[19] = Protein binding in human plasma assessed as unbound fraction; type: ADME, cell-free
MCF7 [20] = assay: Antitumor activity against human MCF7 cells xenografted in mouse assessed as tumor growth inhibition at 60 mg/kg, po QD for 4 weeks; type: functional, organism-based

SMILES: C[C@H](CF)C(=O)N1[C@H](c2c(F)cc(OCCN3CC(CF)C3)cc2F)c2[nH]c3ccccc3c2C[C@H]1C
- solubility kinetic [1]: 102 µM (≈ 52.8 µg/mL)
- logD [2]: 2.5
- DC50 (Estrogen receptor [3]): 0.4 nM
- %max [4]: 96%

SMILES: C[C@@H]1Cc2c([nH]c3ccccc23)[C@@H](c2c(F)cc(OCCN3CC(CF)C3)cc2F)N1C(=O)CC1CC1
- solubility kinetic [1]: 111 µM (≈ 56.8 µg/mL)
- logD [2]: 3.1
- DC50 (Estrogen receptor [3]): 5 nM
- %max [4]: 95%

SMILES: C[C@@H]1Cc2c([nH]c3ccccc23)[C@@H](c2ccc(OCCN3CC(CF)C3)cc2)N1S(C)(=O)=O
- AUC [5]: 28.9 µM·h
- pIC50 (Estrogen receptor [6]): 7.96
- Activity [7]: Non-Toxic
- %max [8]: 82%
- solubility kinetic [1]: 118 µM (≈ 55.6 µg/mL)
- clearance [9]: 7 mL/min/kg
- Activity (MCF7 [10]): Dose-Dependent Effect
- pIC50 (MCF7 [11]): 9.30
- Vd [12]: 7.7 L/kg
- bioavailability [13]: 32%
- AUC [14]: 1.8 µM·h
- Papp B→A [15]: 6 ×10⁻⁶ cm/s
- logD [2]: 2.2
- half-life [16]: 13 h
- DC50 (Estrogen receptor [17]): 1.2 nM
- DC50 (Estrogen receptor [3]): 0.18 nM
- %max [4]: 93%
- Activity (MCF7 [18]): Active
- Papp A→B (in vitro): 5 ×10⁻⁶ cm/s

SMILES: C[C@@H]1Cc2c([nH]c3ccccc23)[C@@H](c2c(F)cc(OCCN3CC(CF)C3)cc2F)N1C(=O)C1CNC1
- solubility kinetic [1]: 96 µM (≈ 49.2 µg/mL)
- logD [2]: -0.2
- DC50 (Estrogen receptor [3]): > 10 nM

SMILES: CC(CO)C(=O)N1[C@H](c2c(F)cc(OCCN3CC(CF)C3)cc2F)c2[nH]c3ccccc3c2C[C@H]1C (some centres undefined)
- solubility kinetic [1]: 156 µM (≈ 80.4 µg/mL)
- logD [2]: 1.8
- DC50 (Estrogen receptor [3]): 4 nM
- %max [4]: 91%

SMILES: C[C@@H]1Cc2c([nH]c3ccccc23)[C@@H](c2c(F)cc(OCCN3CC(CF)C3)cc2F)N1C(=O)C(C)(C)F
- solubility kinetic [1]: 95 µM (≈ 49.2 µg/mL)
- clearance [9]: 120 mL/min/kg
- Vd [12]: 32 L/kg
- bioavailability [13]: 33%
- Papp B→A [15]: 1 ×10⁻⁶ cm/s
- logD [2]: 3.2
- half-life [16]: 3.1 h
- %max [4]: 94%
- Papp A→B (in vitro): 1 ×10⁻⁶ cm/s

SMILES: C[C@@H]1Cc2c([nH]c3ccccc23)[C@@H](c2c(F)cc(OCCN3CC(CF)C3)cc2F)N1S(C)(=O)=O
- %max [8]: 86%
- solubility kinetic [1]: 113 µM (≈ 57.4 µg/mL)
- clearance [9]: 27.5 mL/min/kg
- pIC50 (MCF7 [11]): 9.30
- Vd [12]: 17.3 L/kg
- bioavailability [13]: 47%
- Papp B→A [15]: 4 ×10⁻⁶ cm/s
- logD [2]: 2.3
- half-life [16]: 7 h
- %max [4]: 93%
- Papp A→B (in vitro): 4 ×10⁻⁶ cm/s

SMILES: C[C@@H]1Cc2c([nH]c3ccccc23)[C@@H](c2c(F)cc(OC3CN(CCCF)C3)cc2F)N1CC(C)(C)F
- solubility kinetic [1]: < 1 µM
- Papp B→A [15]: 0.2 ×10⁻⁶ cm/s
- fraction unbound [19]: < 0.001
- %max [4]: 100%
- Papp A→B (in vitro): 0.4 ×10⁻⁶ cm/s

SMILES: C[C@@H]1Cc2c([nH]c3ccccc23)[C@@H](c2c(F)cc(OCCN3CC(CF)C3)cc2F)N1C(=O)[C@@H](C)CF
- solubility kinetic [1]: 115 µM (≈ 59.5 µg/mL)
- logD [2]: 2.5
- DC50 (Estrogen receptor [3]): 0.34 nM
- %max [4]: 98%

SMILES: CC(C)C(=O)N1[C@H](c2c(F)cc(OCCN3CC(CF)C3)cc2F)c2[nH]c3ccccc3c2C[C@H]1C
- solubility kinetic [1]: 135 µM (≈ 67.4 µg/mL)
- DC50 (Estrogen receptor [3]): 0.11 nM
- %max [4]: 95%

SMILES: C[C@@H]1Cc2c([nH]c3ccccc23)[C@@H](c2c(F)cc(OCCN3CC(CF)C3)cc2F)N1C(=O)C(C)(C)C
- solubility kinetic [1]: 92 µM (≈ 47.3 µg/mL)
- logD [2]: 3.3
- DC50 (Estrogen receptor [3]): 0.49 nM
- %max [4]: 90%

SMILES: C[C@@H]1Cc2c([nH]c3ccccc23)[C@@H](c2c(F)cc(OCCN3CC(CF)C3)cc2F)N1C(=O)C1CC1
- solubility kinetic [1]: 181 µM (≈ 90.1 µg/mL)
- logD [2]: 2.1
- DC50 (Estrogen receptor [3]): 3 nM
- %max [4]: 89%

SMILES: CC/C(=C(\c1ccccc1)c1ccc(OCCN(C)C)cc1)c1ccccc1
- Activity (MCF7 [20]): Active

SMILES: C[C@@H]1Cc2c([nH]c3ccccc23)[C@@H](c2ccc(OCCN3CC(CF)C3)cc2F)N1S(C)(=O)=O
- pIC50 (Estrogen receptor [6]): 7.77
- solubility kinetic [1]: 135 µM (≈ 66.1 µg/mL)
- clearance [9]: 10.2 mL/min/kg
- pIC50 (MCF7 [11]): 9.40
- Vd [12]: 9.6 L/kg
- bioavailability [13]: 48%
- Papp B→A [15]: 5 ×10⁻⁶ cm/s
- logD [2]: 2.5
- half-life [16]: 11 h
- DC50 (Estrogen receptor [3]): 0.19 nM
- %max [4]: 93%
- Papp A→B (in vitro): 4 ×10⁻⁶ cm/s

SMILES: C[C@@H]1Cc2c([nH]c3ccccc23)[C@@H](c2c(F)cc(OC3CN(CCCF)C3)cc2F)N1C(=O)C1(F)CC1
- solubility kinetic [1]: 13 µM (≈ 6.7 µg/mL)
- logD [2]: 4.1
- DC50 (Estrogen receptor [3]): 0.32 nM
- %max [4]: 95%

SMILES: CC(=O)N1[C@H](c2c(F)cc(OCCN3CC(CF)C3)cc2F)c2[nH]c3ccccc3c2C[C@H]1C
- solubility kinetic [1]: 53 µM (≈ 25 µg/mL)
- logD [2]: 2.5
- %max [4]: 91%

SMILES: C[C@@H]1Cc2c([nH]c3ccccc23)[C@@H](c2c(F)cc(OCCN3CC(CF)C3)cc2F)N1C(=O)C(C)(F)F
- solubility kinetic [1]: 30 µM (≈ 15.6 µg/mL)
- DC50 (Estrogen receptor [3]): 0.15 nM
- %max [4]: 95%

SMILES: C[C@@H]1Cc2c([nH]c3ccccc23)[C@@H](c2c(F)cc(OC3CN(CCCF)C3)cc2F)N1C(=O)C1(F)CCC1
- solubility kinetic [1]: < 1 µM
- logD [2]: 4.3
- DC50 (Estrogen receptor [3]): 1.2 nM
- %max [4]: 96%

SMILES: C[C@@H]1Cc2c([nH]c3ccccc23)[C@@H](c2c(F)cc(OC3CN(CCCF)C3)cc2F)N1C(=O)C(C)(C)F
- solubility kinetic [1]: < 1 µM
- logD [2]: 4
- DC50 (Estrogen receptor [3]): 0.42 nM
- %max [4]: 100%

SMILES: C[C@@H]1Cc2c([nH]c3ccccc23)[C@@H](c2c(F)cc(OCCN3CC(CF)C3)cc2F)N1C(=O)C1COC1
- solubility kinetic [1]: 117 µM (≈ 60.1 µg/mL)
- logD [2]: 1.8
- DC50 (Estrogen receptor [3]): 4 nM
- %max [4]: 92%
